Source: ChEMBL document CHEMBL5724914, “Linking interpersonal differences in gut microbiota composition and drug biotransformation activity” (2024)

Assays:
[1] = (§1) The drug is tested on WLS-006 corresponding to human gut metagenome with ENA study accession number: PRJEB37062 and ENA sample accession number: ERS12561741 for biotransformation under anaerobic condition. The drug concentrations were measured over 9 timepoints collected between 0 and 24 hours of incubation by liquid-chromatography-coupled mass spectrometry (LC–MS); conditions: 2 µM
[2] = human gut metagenome, 24 h, 2 µM
[3] = as §1, with “WLS-069” for “WLS-006”, “ERS12561748” for “ERS12561741”; conditions: 2 µM
[4] = human gut metagenome, 24 h, 2 µM; remark: listed apart in the source
[5] = human gut metagenome, 24 h, 2 µM; remark: listed apart in the source
[6] = as §1, with “WLS-220” for “WLS-006”, “ERS12561769” for “ERS12561741”; conditions: 2 µM
[7] = human gut metagenome, 24 h, 2 µM; remark: listed apart in the source
[8] = human gut metagenome, 24 h, 2 µM; remark: listed apart in the source
[9] = human gut metagenome, 24 h, 2 µM; remark: listed apart in the source
[10] = human gut metagenome, 24 h, 2 µM; remark: listed apart in the source
[11] = human gut metagenome, 24 h, 2 µM; remark: listed apart in the source
[12] = human gut metagenome, 24 h, 2 µM; remark: listed apart in the source
[13] = as §1, with “WLS-010” for “WLS-006”, “ERS12561743” for “ERS12561741”; conditions: 2 µM
[14] = human gut metagenome, 24 h, 2 µM; remark: listed apart in the source
[15] = as §1, with “Z-004” for “WLS-006”, “to” for “to human gut”, “ERS12561804” for “ERS12561741”; conditions: 2 µM
[16] = human gut metagenome, 24 h, 2 µM; remark: listed apart in the source
[17] = human gut metagenome, 24 h, 2 µM; remark: listed apart in the source
[18] = as §1, with “WLS-170” for “WLS-006”, “ERS12561762” for “ERS12561741”; conditions: 2 µM
[19] = as §1, with “Z-013” for “WLS-006”, “rabbit” for “human”, “ERS12561813” for “ERS12561741”; conditions: 2 µM
[20] = as §1, with “Z-010” for “WLS-006”, “to” for “to human gut”, “ERS12561810” for “ERS12561741”; conditions: 2 µM
Note: call rule not given here.

| Structure (SMILES) | Bacterial Biotransformation [1] | Bacterial Biotransformation [2] | Bacterial Biotransformation [3] | Bacterial Biotransformation [4] | Bacterial Biotransformation [5] | Bacterial Biotransformation [6] | Bacterial Biotransformation [7] | Bacterial Biotransformation [8] | Bacterial Biotransformation [9] | Bacterial Biotransformation [10] | Bacterial Biotransformation [11] | Bacterial Biotransformation [12] | Bacterial Biotransformation [13] | Bacterial Biotransformation [14] | Bacterial Biotransformation [15] | Bacterial Biotransformation [16] | Bacterial Biotransformation [17] | Bacterial Biotransformation [18] | Bacterial Biotransformation [19] | Bacterial Biotransformation [20] |
| --- | --- | --- | --- | --- | --- | --- | --- | --- | --- | --- | --- | --- | --- | --- | --- | --- | --- | --- | --- | --- |
| Cc1cn([C@H]2C[C@H](N=[N+]=[N-])[C@@H](CO)O2)c(=O)[nH]c1=O [ZIDOVUDINE] | Compound metabolized | Compound metabolized | Compound NOT metabolized | Compound NOT metabolized | Compound NOT metabolized | Compound NOT metabolized | Compound NOT metabolized | Compound NOT metabolized | Compound NOT metabolized | Compound NOT metabolized | Compound NOT metabolized | Compound metabolized | Compound metabolized | Compound NOT metabolized | Compound metabolized | Compound NOT metabolized | Compound metabolized | Compound NOT metabolized | Compound NOT metabolized | Compound NOT metabolized |
| CCN(CC)CCNC(C(=O)OCCC(C)C)c1ccccc1.Cl.Cl (stereo not given) | Compound metabolized | Compound metabolized | Compound metabolized | Compound metabolized | Compound metabolized | Compound NOT metabolized | Compound metabolized | Compound metabolized | Compound NOT metabolized | Compound metabolized | Compound metabolized | Compound metabolized | Compound metabolized | Compound metabolized | Compound NOT metabolized | Compound metabolized | Compound NOT metabolized | Compound metabolized | Compound NOT metabolized | Compound metabolized |
| COc1ccccc1OCC(O)CN1CCN(CC(=O)Nc2c(C)cccc2C)CC1 (stereo not given) [RANOLAZINE] | Compound NOT metabolized | Compound NOT metabolized | Compound NOT metabolized | Compound NOT metabolized | Compound NOT metabolized | Compound NOT metabolized | Compound NOT metabolized | Compound NOT metabolized | Compound NOT metabolized | Compound NOT metabolized | Compound NOT metabolized | Compound NOT metabolized | Compound NOT metabolized | Compound NOT metabolized | Compound NOT metabolized | Compound NOT metabolized | Compound NOT metabolized | Compound NOT metabolized | Compound NOT metabolized | Compound NOT metabolized |
| CCCCC1=NC2(CCCC2)C(=O)N1Cc1ccc(-c2ccccc2-c2nnn[nH]2)cc1 [IRBESARTAN] | Compound metabolized | Compound metabolized | Compound metabolized | Compound metabolized | Compound metabolized | Compound metabolized | Compound metabolized | Compound metabolized | Compound metabolized | Compound metabolized | Compound metabolized | Compound metabolized | Compound metabolized | Compound metabolized | Compound metabolized | Compound metabolized | Compound NOT metabolized | Compound metabolized | Compound NOT metabolized | Compound metabolized |
| NS(=O)(=O)c1cc2c(cc1Cl)N=C(CSCc1ccccc1)NS2(=O)=O [BENZTHIAZIDE] | Compound NOT metabolized | Compound NOT metabolized | Compound NOT metabolized | Compound NOT metabolized | Compound NOT metabolized | Compound NOT metabolized | Compound NOT metabolized | Compound NOT metabolized | Compound NOT metabolized | Compound NOT metabolized | Compound NOT metabolized | Compound NOT metabolized | Compound NOT metabolized | Compound NOT metabolized | Compound NOT metabolized | Compound NOT metabolized | Compound NOT metabolized | Compound NOT metabolized | Compound NOT metabolized | Compound NOT metabolized |
| CCCCCOC(=O)Nc1nc(=O)n([C@@H]2O[C@H](C)[C@@H](O)[C@H]2O)cc1F [CAPECITABINE] | Compound metabolized | Compound metabolized | Compound metabolized | Compound metabolized | Compound metabolized | Compound metabolized | Compound metabolized | Compound metabolized | Compound metabolized | Compound metabolized | Compound metabolized | Compound metabolized | Compound metabolized | Compound metabolized | Compound metabolized | Compound metabolized | Compound NOT metabolized | Compound metabolized | Compound metabolized | Compound metabolized |
| CNCCC(Oc1ccc(C(F)(F)F)cc1)c1ccccc1 (stereo not given) [FLUOXETINE] | Compound NOT metabolized | Compound NOT metabolized | Compound NOT metabolized | Compound metabolized | Compound NOT metabolized | Compound NOT metabolized | Compound NOT metabolized | Compound NOT metabolized | Compound NOT metabolized | Compound NOT metabolized | Compound NOT metabolized | Compound NOT metabolized | Compound NOT metabolized | Compound NOT metabolized | Compound NOT metabolized | Compound metabolized | Compound NOT metabolized | Compound NOT metabolized | Compound NOT metabolized | Compound NOT metabolized |
